Reference: paper PMC3048208 (British Journal of Cancer, 2011)
Entries after “also recorded” stand apart in the source; their conditions may differ. Structures can show the parent of a compound that is named as a salt. Where two headings read alike, the source gives them in different places.

Tests used:
[1] = Plasma pharmacokinetics of SB939 in patients, LC–MS/MS, non-compartmental; type: in vivo, human; details: for AUC(0-inf) / Cmax / half-life / Tmax: human, plasma
Description: Pre-dose PK assessment was also performed on day 15 of treatment.
Whole blood was collected into a 3-ml blood tubes containing K2EDTA anti-coagulant and centrifuged at 1000 g for 10 min at 4°C. Plasma was kept as an aliquot and frozen at −80°C. […] The samples were centrifuged at 1200 g for 10 min at 4°C, and the supernatant was stored at −80°C until analysis at MPI Research, Mattawan, MI, USA. Pharmacokinetic parameters were calculated by a non-compartmental method using WinNonlin 4.0 software (Pharsight Corporation, Mountain View, CA, USA). Peak plasma concentration (Cmax) and time to peak concentration (Tmax) were estimated from the plasma drug concentration–time curve. The elimination half-life (T1/2) during the log-linear terminal phase was calculated from the elimination rate constant determined by a linear regression analysis. The area under the concentration time curve extrapolated to infinity (AUC0−∞) was calculated by the log-linear trapezoidal method for the observed values, with extrapolation to infinity including at least three points on the terminal phase.

advanced solid tumours = assay: Anti-tumour activity (RECIST 1.0); type: in vivo, human; details: for Period of disease stabilisation: colorectal carcinoma patient
Description: For patients with measurable disease at baseline, response was assessed using the Response and Evaluation Criteria in Solid Tumours version 1.0 ([Therasse et al, 2000]).

[2] = system: acetylated histone H3 (AcH3) in PBMCs; assay: AcH3 levels in PBMCs by western blot; type: in vivo, human
Description: Based on the preclinical data showing parallel changes in AcH3 in PBMCs and tumour tissue, PBMCs were selected for study in the phase I trial ([Novotny-Diermayr et al, 2008]; [Yong et al, 2009]).
Whole blood samples for PD evaluation were taken in cycle 1, days 1 and 15 at pre-dose followed by 3 and 24 h post-dose. For each sample, blood was collected at room temperature in an 8-ml BD Vacutainer CPT tube (Becton, Dickson and Company, Franklin Lakes, NJ, USA). Blood samples were processed in a refrigerated centrifuge within 30 min of collection to preserve histone acetylation status. PBMCs were extracted from blood, processed to pellet form and stored at −80°C. Levels of AcH3 in PBMCs were determined using a validated western blot technique ([Novotny-Diermayr et al, 2008]).

HCT-116 cells = system: HCT-116 cells; set-up: method as in Novotny-Diermayr et al, 2010; details: ref Novotny-Diermayr et al, 2010; cited from earlier work
[3] = system: patients with solid tumours; set-up: method as in Yong et al, 2008; details: three times weekly, 3 out of 4 weeks; ref Yong et al, 2008; cited from earlier work
[4] = system: wide variety of cell lines; set-up: method as in Novotny-Diermayr et al, 2010; details: in vitro; ref Novotny-Diermayr et al, 2010; cited from earlier work
cancer cells = system: cancer cells; set-up: method as in Novotny-Diermayr et al, 2010; details: ref Novotny-Diermayr et al, 2010; cited from earlier work
[5] = system: xenograft models of colon (HCT-116), ovarian (A2780) and prostate (PC3, DU145) carcinomas; set-up: method as in Novotny-Diermayr et al, 2010; details: ref Novotny-Diermayr et al, 2010, cited from earlier work
class I, II and IV HDACs = details: in vitro; ref Novotny-Diermayr et al, 2010; cited from earlier work
[6] = oral, 10 mg, Day 1, dose level 1, 10 mg, 3 days every 2 weeks
[7] = oral, 10 mg, Day 1, dose level 2, 10 mg
[8] = oral, 10 mg, Day 3 or 5, dose level 1, 10 mg, 3 days every 2 weeks
[9] = oral, 10 mg, Day 3 or 5, dose level 2, 10 mg
[10] = oral, 20 mg, Day 1, dose level 3, 20 mg
[11] = oral, 20 mg, Day 3 or 5, dose level 3, 20 mg
[12] = oral, 30 mg, Day 1, dose level 4, 30 mg
[13] = oral, 30 mg, Day 3 or 5, dose level 4, 30 mg
[14] = oral, 50 mg, Day 1, dose level 5, 50 mg
[15] = oral, 50 mg, Day 3 or 5, dose level 5, 50 mg
[16] = oral, 60 mg, Day 1, dose level 5.5, 60 mg
[17] = oral, 60 mg, Day 3 or 5, dose level 5.5, 60 mg
[18] = oral, 70 mg, Day 1, dose level 6, 70 mg
[19] = oral, 70 mg, Day 3 or 5, dose level 6, 70 mg
[20] = oral, 90 mg, Day 1, dose level 7, 90 mg
[21] = oral, 90 mg, Day 3 or 5, dose level 7, 90 mg

## CCCCc1nc2cc(/C=C/C(=O)NO)ccc2n1CCN(CC)CC [SB939, 3-[2-butyl-1-(2-diethylaminoethyl)-1H-benzoimidazol-5-yl]-N-hydroxyacrylami-hydrochloride]
[1]; between 10 and 90 mg
  Dose proportionality of mean AUC: dose-proportional increases in AUC; also recorded: increased dose proportionally
[1]; daily x 5 dosing
  Accumulation on Day 5 compared with Day 1: no accumulation
[1]; [6]
  AUC(0-inf): 127 ng·h/mL
  Cmax: 14.6 ng/mL
[1]; oral, 10 mg, Day 1, dose level 1, 10 mg, 3 days every 2 weeks, read-out: T1/2, mean (converted)
  half-life: 7.1 h
[1]; oral, 10 mg, Day 1, dose level 1, 10 mg, 3 days every 2 weeks, read-out: Tmax, mean
  Tmax: 2.5 h
[1]; [7]
  AUC(0-inf): 137 ng·h/mL
  Cmax: 19.5 ng/mL
[1]; oral, 10 mg, Day 1, dose level 2, 10 mg, read-out: T1/2, mean (converted)
  half-life: 8.6 h
[1]; oral, 10 mg, Day 1, dose level 2, 10 mg, read-out: Tmax, mean
  Tmax: 1.1 h
[1]; [8]
  AUC(0-inf): 147 ng·h/mL
  Cmax: 18.3 ng/mL
[1]; oral, 10 mg, Day 3 or 5, dose level 1, 10 mg, 3 days every 2 weeks, read-out: T1/2, mean (converted)
  half-life: 8.3 h
[1]; oral, 10 mg, Day 3 or 5, dose level 1, 10 mg, 3 days every 2 weeks, read-out: Tmax, mean
  Tmax: 1.3 h
[1]; [9]
  AUC(0-inf): 188 ng·h/mL
  Cmax: 23.3 ng/mL
[1]; oral, 10 mg, Day 3 or 5, dose level 2, 10 mg, read-out: T1/2, mean (converted)
  half-life: 8.1 h
[1]; oral, 10 mg, Day 3 or 5, dose level 2, 10 mg, read-out: Tmax, mean
  Tmax: 1.3 h
[1]; [10]
  AUC(0-inf): 244 ng·h/mL
  Cmax: 45.9 ng/mL
[1]; oral, 20 mg, Day 1, dose level 3, 20 mg, read-out: T1/2, mean (converted)
  half-life: 5.9 h
[1]; oral, 20 mg, Day 1, dose level 3, 20 mg, read-out: Tmax, mean
  Tmax: 1.5 h
[1]; [11]
  AUC(0-inf): 424 ng·h/mL
  Cmax: 51.3 ng/mL
[1]; oral, 20 mg, Day 3 or 5, dose level 3, 20 mg, read-out: T1/2, mean (converted)
  half-life: 7.7 h
[1]; oral, 20 mg, Day 3 or 5, dose level 3, 20 mg, read-out: Tmax, mean
  Tmax: 1.6 h
[1]; [12]
  AUC(0-inf): 384 ng·h/mL
  Cmax: 55.8 ng/mL
[1]; oral, 30 mg, Day 1, dose level 4, 30 mg, read-out: T1/2, mean (converted)
  half-life: 8.6 h
[1]; oral, 30 mg, Day 1, dose level 4, 30 mg, read-out: Tmax, mean
  Tmax: 1.8 h
[1]; [13]
  AUC(0-inf): 544 ng·h/mL
  Cmax: 74.3 ng/mL
[1]; oral, 30 mg, Day 3 or 5, dose level 4, 30 mg, read-out: T1/2, mean (converted)
  half-life: 8.8 h
[1]; oral, 30 mg, Day 3 or 5, dose level 4, 30 mg, read-out: Tmax, mean
  Tmax: 1.6 h
[1]; [14]
  AUC(0-inf): 661 ng·h/mL
  Cmax: 124 ng/mL
[1]; oral, 50 mg, Day 1, dose level 5, 50 mg, read-out: T1/2, mean (converted)
  half-life: 5.6 h
[1]; oral, 50 mg, Day 1, dose level 5, 50 mg, read-out: Tmax, mean
  Tmax: 1.6 h
[1]; [15]
  AUC(0-inf): 794 ng·h/mL
  Cmax: 101 ng/mL
[1]; oral, 50 mg, Day 3 or 5, dose level 5, 50 mg, read-out: T1/2, mean (converted)
  half-life: 8.9 h
[1]; [16]
  AUC(0-inf): 1030 ng·h/mL
  Cmax: 210 ng/mL
[1]; oral, 60 mg, Day 1, dose level 5.5, 60 mg, read-out: T1/2, mean (converted)
  half-life: 6.7 h
[1]; oral, 60 mg, Day 1, dose level 5.5, 60 mg, read-out: Tmax, mean
  Tmax: 1.2 h
[1]; [17]
  AUC(0-inf): 1630 ng·h/mL
  Cmax: 262 ng/mL
[1]; oral, 60 mg, Day 3 or 5, dose level 5.5, 60 mg, read-out: T1/2, mean (converted)
  half-life: 6.9 h
[1]; oral, 60 mg, Day 3 or 5, dose level 5.5, 60 mg, read-out: Tmax, mean
  Tmax: 1.3 h
[1]; [18]
  AUC(0-inf): 1050 ng·h/mL
  Cmax: 178 ng/mL
[1]; oral, 70 mg, Day 1, dose level 6, 70 mg, read-out: T1/2, mean (converted)
  half-life: 7 h
[1]; oral, 70 mg, Day 1, dose level 6, 70 mg, read-out: Tmax, mean
  Tmax: 1.6 h
[1]; [19]
  AUC(0-inf): 1130 ng·h/mL
  Cmax: 160 ng/mL
[1]; oral, 70 mg, Day 3 or 5, dose level 6, 70 mg, read-out: T1/2, mean (converted)
  half-life: 6.4 h
[1]; oral, 70 mg, Day 3 or 5, dose level 6, 70 mg, read-out: Tmax, mean
  Tmax: 1.5 h
[1]; [20]
  AUC(0-inf): 1130 ng·h/mL
  Cmax: 229 ng/mL
[1]; oral, 90 mg, Day 1, dose level 7, 90 mg, read-out: T1/2, mean (converted)
  half-life: 6.4 h
[1]; oral, 90 mg, Day 1, dose level 7, 90 mg, read-out: Tmax, mean
  Tmax: 1 h
[1]; [21]
  AUC(0-inf): 1230 ng·h/mL
  Cmax: 116 ng/mL
[1]; oral, 90 mg, Day 3 or 5, dose level 7, 90 mg, read-out: T1/2, mean (converted)
  half-life: 6.1 h
[1]; oral, 90 mg, Day 3 or 5, dose level 7, 90 mg, read-out: Tmax, mean
  Tmax: 1.5 h
[1]; po, 10 to 90 mg oral, read-out: Tmax, range over dose levels
  Tmax: 1 to 2.5 h
[1]; po, 10 to 90 mg oral, read-out: Elimination (terminal) half-life, range over dose levels
  half-life: 5.6 to 8.9 h
Advanced solid tumours; 31 evaluable patients
  Objective tumour responses: No objective tumour responses
Advanced solid tumours; dose level 2
  Period of disease stabilisation: 8.1 months
Advanced solid tumours; dose level 3
  Period of disease stabilisation: 10.8 months
Advanced solid tumours; dose level 4
  Period of disease stabilisation: 7.4 months
Advanced solid tumours; metastatic colorectal carcinoma
  Disease stabilisation of >6 months, no. of patients: Three
Advanced solid tumours; of the 31 evaluable
  Best response stable disease: 32%
  Best response stable disease, no. of patients: Ten
  Disease progression: 68%
  Disease progression, no. of patients: 21
Advanced solid tumours; patients with SD
  Median duration of disease control: 5.7 months
  Range of duration of disease control: 1.8–10.8 months
[2]; 10 to 90 mg
  Dose–PD relationship of AcH3: no clear dose–PD relationship
[2]; cycle 1, 3 h or 24 h post-treatment
  Change in AcH3 in PBMCs: Increases in AcH3 were seen
HCT-116 cells
  Effectiveness compared with vorinostat: more effective than vorinostat
[3]
  RPTD: 60 mg
[4]
  Anti-proliferative activities: significant anti-proliferative activities
Cancer cells
  Immunoblot changes after treatment: accumulation of acetylated histone H3 (AcH3) and acetylated α-tubulin, as well as increased expression levels of the cyclin dependant kinase inhibitor p21
[5]; HCT-116, A2780, PC3, DU145 xenografts, MV4-11, HL-60 and B cell lymphoma murine models
  Anti-tumour efficacy: dose-dependent anti-tumour efficacy
[5]; preclinical experiments
  Drug accumulation and inhibition of histone deacetylation in tumour tissues compared with vorinostat: prolonged drug accumulation and more sustained inhibition of histone deacetylation
Class I, II and IV HDACs
  Selectivity for class I, II and IV HDACs compared with class III HDACs: > 1000 fold
